# From patent publication US20210220408A1, “ARYL HYDROCARBON RECEPTOR ANTAGONISTS AND METHODS OF USE” (Magenta Therapeutics Inc., priority 2018, published 2021)
# Target: T1, aryl hydrocarbon receptor (AHR) (Homo sapiens, UniProt P35869)
# T1 sequence (P35869 11-848): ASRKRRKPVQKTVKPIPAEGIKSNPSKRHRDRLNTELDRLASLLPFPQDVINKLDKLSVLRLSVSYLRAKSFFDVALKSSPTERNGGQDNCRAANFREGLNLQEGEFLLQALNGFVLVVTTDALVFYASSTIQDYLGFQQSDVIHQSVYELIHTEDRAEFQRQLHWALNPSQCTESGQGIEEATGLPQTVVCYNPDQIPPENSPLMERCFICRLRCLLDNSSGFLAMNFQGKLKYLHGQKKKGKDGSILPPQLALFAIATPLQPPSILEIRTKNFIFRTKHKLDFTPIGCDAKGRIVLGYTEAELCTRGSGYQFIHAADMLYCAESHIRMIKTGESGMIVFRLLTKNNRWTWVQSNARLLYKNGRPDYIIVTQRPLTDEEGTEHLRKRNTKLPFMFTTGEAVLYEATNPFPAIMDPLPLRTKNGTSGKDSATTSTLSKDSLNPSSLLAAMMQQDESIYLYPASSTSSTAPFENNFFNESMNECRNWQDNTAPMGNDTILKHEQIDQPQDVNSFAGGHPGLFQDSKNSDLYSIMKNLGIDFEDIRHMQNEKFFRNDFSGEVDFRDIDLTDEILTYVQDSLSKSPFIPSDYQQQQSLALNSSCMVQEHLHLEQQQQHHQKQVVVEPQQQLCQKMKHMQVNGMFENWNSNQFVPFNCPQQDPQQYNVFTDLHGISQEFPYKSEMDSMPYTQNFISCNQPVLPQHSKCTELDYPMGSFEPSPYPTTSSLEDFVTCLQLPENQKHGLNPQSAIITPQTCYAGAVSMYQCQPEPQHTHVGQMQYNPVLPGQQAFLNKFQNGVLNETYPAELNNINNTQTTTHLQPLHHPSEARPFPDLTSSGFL
# Assay: DRE-Luciferase reporter high-throughput screen (AHR antagonist, VAF347-activated)
# Description: HepG2 hepatocellular carcinoma cells were transfected with a dioxin-response element (DRE) Firefly luciferase reporter construct. Luciferase transcription was activated with the aryl hydrocarbon receptor (AHR) agonist, VAF347. Addition of an AHR antagonist results in inhibition of the luciferase transcription and a loss of signal in the assay.
# HepG2, a hepatocellular carcinoma cell line, was transfected with the dioxin-response element Firefly luciferase reporter construct using the TransIT-transfection system. Prior to transfection, HepG2 cells (Sigma) were cultured at 90% confluency in Eagle's Modified Essential Medium (Sigma)+2 mM Glutamine (Sigma), +1^% Non Essential Amino Acids (Sigma)+10% Fetal Bovine Serum (Hyclone) and harvested and counted (Biorad TC20 cell counter). OptilMEM serum-free media and TransIT (Mirus) were mixed for transfection in 150 mm dishes by adding 240 μL Transit to 3.0 mL OptiMEM, vortexing briefly to mix, and incubating at room temperature for 20 minutes. The DNA mixture was prepared by adding 80 μg plasmid (pGudLuc6.1 plasmid, Garrison et al., (1996) Fundam. Appl. Toxicol., 30, 194-203), inverting to mix, and incubating at room temperature for 30 minutes. 30×10^6 HepG2 cells were seeded in 30 mL media and 3.3 mL of the DNA, OptiMEM, and TransIT mixture was added dropwise to the plate. The plate was mixed by rocking and incubated at 37° C./5% CO2 overnight. The next day, cells were harvested by aspirating media, washing once with sterile phosphate buffered saline (PBS, Gibco), trypsinzing with 0.05% Trypsin (Corning) and harvesting cells with culture medium, and freezing with Cell Freezing Media (Gibco) at 5 50×10^6 cells/vial in 1 mL/vial.
# Transiently-transfected frozen HepG2 cells with DRE-Luciferase, were thawed in a 37° C. water bath and resuspended in complete media. 4 μL cells at 15,000 cells per well was transferred into the wells of a 1536-well Alphaplate assay plate (PerkinElmer) using TEMPEST liquid dispenser. The plate was centrifuged at 1000 rpm for 1 minute. 30 nL of the controls (1 μM (S)-2-(6-((2-(1H-indol-3-yl)ethyl)amino)-2-(5-fluoropyridin-3-yl)-9H-purin-9-yl)propan-1-ol or 100% DMSO) were transferred to the assay plate using the Pin Tool on BRAVO. 1 μL of VAF347 (15 nM final concentration) in complete media was added to the wells using TEMPEST. The plate was centrifuged at 1000 rpm for 1 minute and incubated at 37° C./5% CO2 overnight. After incubation, the plate was removed from the incubator and brought to room temperature. 2 μL of room temperature Steady-Glo luciferase detection reagent (Promega) was added to the wells with TEMPEST. The plate was centrifuged at 2000 rpm for 1 minute, sealed with clear plastic seal and kept at room temperature for 15 minutes prior to measuring luminescence on ENVISION.
# Approximately 166,000 compounds were screened in 132 1536-well plates in the luciferase reporter gene assay at a final concentration of 12 μM. […] Each compound was tested at 0.1 μM, 1.0 μM, and 10 μM in the DRE luciferase assay and Cell Titer Glo cytotoxicity assay (Promega). […] 512 compounds were selected for 10-point dose-response in the AHR luciferase reporter assay and the Cell Titer Glo cytotoxicity assay.
row,Compound,IC50 [µM]
1,COc1ccc(NC(=O)c2ccc(C(F)(F)F)[nH]c2=O)cn1 [18A],> 2
2,Cc1cccc(N2CC[C@H]3[C@H]2CCN3c2ncccn2)n1 [115B],0.5 to 1
3,CCn1c2ccccc2c2nnc(-n3nc(C)cc3C)nc21 [122B],1 to 2
4,Cc1cc(C)c(C#N)c(SCc2cc(-c3cccs3)on2)n1 [79B],1 to 2
5,O=C(Cc1cccc(F)c1)Nc1ccc(-c2nccs2)cc1 [compound 62],0.5 to 1
6,CC(C)NC(=O)c1ccc2c(-c3nccs3)noc2c1 [65A],1 to 2
7,COc1cccc(Nc2ccc(-c3ccccc3)nn2)c1 [88A],> 2
8,CCN1C(=O)C[C@@H]2[C@@H]1CCN2S(=O)(=O)Cc1ccc(C)cc1 [182A],1 to 2
9,CC(=O)N1CC=C(c2ccc(OCc3ccc(C#N)cc3)cc2)CC1 [compound 143],0.2 to 0.5
10,Cc1c(-c2nc(-c3ccc(C(C)(C)C)cc3)no2)n(C)oc1=O [87B],0.2 to 0.5
11,O=C1CC(c2ccc(Cl)cc2)CN1C(=O)Nc1ccccc1 (stereo not shown) [103B],0.5 to 1
12,O=[N+]([O-])c1ccc(-n2cnc(-c3ccc(F)cc3)c2)nc1 [52B],0.2 to 0.5
13,N#Cc1c(NC(=O)c2cnn3cccnc23)sc2c1CCC2 [32B],1 to 2
14,N#Cc1ccc(OCc2ccc3nonc3c2)cc1 [174A],> 2
15,CCCN(C(=O)C1CC1)c1nnc(-c2ccc(Cl)cc2)s1 [144A],1 to 2
16,c1ccc(-c2nc(COc3cccc(-n4cnnn4)c3)cs2)cc1 [54A],1 to 2
17,CSc1nccc(NC(=O)c2cccc(C(F)(F)F)c2)n1 [14A],> 2
18,O=C(Nc1ccc2ccccc2c1)c1cccc(NC(=O)C(F)(F)F)c1 [35A],1 to 2
19,O=C(NC1CC1)c1cnc(-c2noc3ccccc23)s1 [61A],1 to 2
20,O=c1cc(NCc2cccc(C(F)(F)F)c2)nc2ccc(Cl)cn12 [167A],> 2
21,COC(=O)C1=C(C)Nc2nc(-c3ccccc3)nn2C1c1cccnc1 (stereo not shown) [126A],1 to 2
22,Clc1ccc(-c2noc(-c3c[nH]nc3-c3ccccc3)n2)cc1 [86B],> 2

row,Compound,IC50 [µM]
1,O=C(Nc1ccc(OC(F)F)c(Cl)c1)c1cccc(Cl)c1 [5B],0.5 to 1
2,FC(F)(F)c1cnc(-c2cnc(-c3ccccn3)nc2)c(Cl)c1 [compound 87],0.5 to 1
3,CN(C)c1cccc(-c2nnc(-c3ccc(C(F)(F)F)cc3)[nH]2)c1 [compound 97],0.2 to 0.5
4,CN(C)c1nc(N2CCN(c3ccc(F)cc3)CC2)cc(C(F)(F)F)n1 [compound 81],0.2 to 0.5
5,COc1ccc(N2CCN(c3cc(C)nn4cnnc34)CC2)cc1 [74A],> 2
6,COc1ccccc1CNc1[nH]nc2nc(C)cc(C)c12 [123A],1 to 2
7,COC(=O)c1cc2c(ccn2-c2ccc(F)cc2)n1CCC#N [116B],1 to 2
8,COc1ccccc1-c1nc(-c2ccc(CN(C)C(C)=O)cc2)cs1 [compound 50],< 0.2
9,N#Cc1cc(NCCOCC(F)(F)F)nc2ccc([N+](=O)[O-])cc12 [154A],> 2
10,Cc1cc(NC(=O)c2nnn(-c3ccccc3)c2C)no1 [19B],> 2
11,COc1ccc(Br)cc1-c1nc(Cn2cnc(C#N)n2)cs1 [35B],> 2
12,Cc1ccc(NC(=O)CSc2nnc(C)c3ccccc23)cc1 [160A],1 to 2
13,Cc1ccccc1OCCNC(=O)c1cc(Cl)ccc1F [141A],1 to 2
14,CCOc1ccc(-c2ccc(SCC)nn2)cc1 [90A],> 2
15,FC(F)(F)c1ccc(CSc2nccc(-c3cccnc3)n2)cc1 [46B],0.2 to 0.5
16,COc1ccc(C2=Nn3c(nc4ccsc4c3=O)SC2)cc1 [126B],1 to 2
17,Cc1ccc(C(=O)Nc2ccc(Br)c(C)n2)c(Cl)c1 [8B],0.5 to 1
18,FC(F)(F)c1cccc(Nc2nc3ccccc3[nH]2)c1 [114A],1 to 2
19,Cc1ccc(NC(=O)CN(C)C(C)c2cccs2)c(F)c1 (stereo not shown) [147A],> 2
20,O=c1ccc2ccc(OCc3ccc(F)cc3Cl)cc2o1 [111B],0.2 to 0.5
21,CC(C)C(=O)Nc1ccc2c(c1)C(=O)c1c-2nn(C)c1C(C)(C)C [compound 148],0.5 to 1
